Experimental data from article PMC3661926 (Acta Neuropathologica, 2013).
Read-outs that look alike come from different tables or passages of the source.

Columns and labels:
[1] = target: PrP^Sc (RML prion strain) (Mus musculus, UniProt P04925); assay: biochemical
[2] = target: PrP^Sc (vCJD prions) (Homo sapiens, UniProt P04156); assay: biochemical
[3] = system: prion strains RML, ME7, 301C, sCJD, vCJD; assay type: biochemical, mouse and human; conditions: 1 μl of 10 mM compound solution in DMSO
[4] = system: RML scrapie; assay: whole plant or invertebrate; assay type: in vivo, C57BL/6 mice
[5] = system: RML scrapie; assay type: in vivo, C57BL/6 mice; conditions: for Median/Mean* Survival Therapy / difference of survival therapy vs control: C57BL/6, RML i.c., 250 mg/kg
[6] = system: rotenone-treated C57Bl/6J mice; conditions: mouse, in vivo
[7] = system: MPTP-treated mice; conditions: mouse, in vivo
[8] = system: actin; assay type: biochemical
[9] = in vivo
[10] = C57/BL6, mouse, in vivo
[11] = mouse, in vivo, 2000 mg/kg
[12] = rat, in vivo, 2000 mg/kg
[13] = system: Salmonella typhimurium strains TA 98, TA 100, TA 102, TA 1535 and TA 1537
[14] = system: cultured human peripheral lymphocytes
[15] = in vivo; conditions: C57/BL6, mouse; for half-life: ip, 1 mg
[16] = physchem; conditions: water

PrP^Sc (RML prion strain), sequence (P04925 23-230 limits assumed): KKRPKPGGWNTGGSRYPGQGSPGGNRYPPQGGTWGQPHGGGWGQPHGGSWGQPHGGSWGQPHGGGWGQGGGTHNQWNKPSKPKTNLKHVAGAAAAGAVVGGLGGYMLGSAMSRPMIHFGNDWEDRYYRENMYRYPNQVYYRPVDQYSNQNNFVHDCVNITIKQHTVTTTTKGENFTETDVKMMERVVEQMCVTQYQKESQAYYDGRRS

## Brc1cccc(-c2cc(-c3ccc4c(c3)OCO4)n[nH]2)c1 [anle138b, 3-(1,3-benzodioxol-5-yl)-5-(3-bromophenyl)-1H-pyrazole]
[1]
  EC50: 7.3 µM
[1]; read-out: % inhibition PrP^Sc PMCA
  inhibition at 10 µM: 84%
[2]
  EC50: 7.1 µM
[3]
  inhibitory activity in PMCA, all prion strains tested: strong inhibitory activity in all prion strains tested
[4]; PrP^Sc level in brain 106 days after i.c. infection, treatment 24 days: 14 days i.p. 0.84 mg, 2 × 5 days oral gavage 1 mg
  % inhibition PrP^Sc in vivo (c): 108%
[4]; PrP^Sc level in spleen 35 days after i.p. infection, 34 days treatment with 1 mg compound oral in peanut butter
  % inhibition PrP^Sc in vivo (b): 57%
[4]; from 80 dpi: 14 days i.p. 0.84 mg, 2 x 5 days gavage 1 mg, measured at 95 and 106 dpi
  change of PrPSc levels in brain, mixed application scheme: decrease in PrPSc levels
[4]; in Mus musculus, po, 2880 h, read-out: % inhibition PrP^Sc in vivo (a)
  inhibition in vivo at 1 mg: 78%
[5]; 160 d.p.i., arena movement tracking
  motor performance in prion infected mice: unimpaired
[5]; 0 dpi oral
  Median/Mean* Survival Therapy: 355 days
  difference of survival therapy vs control: 175 days
[5]; 80 dpi oral
  Median/Mean* Survival Therapy: 242 days
  difference of survival therapy vs control: 74 days
[5]; 120 dpi oral
  Median/Mean* Survival Therapy: 224 days
  difference of survival therapy vs control: 52 days
[5]; brain homogenates of treated mice, fractions 7–12
  size distribution of PrP^Sc aggregates (sucrose-gradient centrifugation): strong reduction of high molecular weight species
[5]; mouse, in vivo
  pyknotic nuclei, cerebellar granule cell layer: significantly reduced number of pyknotic nuclei
[5]; treatment from 80 dpi onwards
  time for which weight loss is prevented: ~ 100 days
[5]; treatment from 120 dpi
  time for which further weight loss is inhibited: ~ 70 days
[5]; treatment from day 80 post i.c. infection (5 mg daily oral)
  Median survival: 242,5
[5]; treatment from day 120 post i.c. infection (5 mg daily oral)
  Median survival: 224,0
[6]
  1-h stool collection gut motility test: complete rescue of enteric function
  motor performance (Rotarod): significantly improved motor performance
[7]
  loss of dopaminergic (TH-positive) neurons in substantia nigra: significantly ameliorated
[8]
  effect on actin polymerization: do not affect actin polymerization
[9]; C57/BL6, mouse
  metabolites in brain extracts (HPLC, high resolution MS): did not identify metabolites of anle138b
[9]; mouse, po
  conc. brain: 34.1 nmol/g
[10]
  AUC after oral application compared to i.p. application: approximately 50%
[11]
  acute toxicity, single oral administration: did not reveal any signs of toxicity and no mortality
[12]
  acute toxicity, single oral administration: not reveal any signs of toxicity and no mortality
[13]
  concentration with test item precipitation: ≥ 100 µg/plate
  cytotoxicity, preliminary test: No signs of cytotoxicity
  mutagenic effect (revertant colony numbers): No mutagenic effect
[14]
  clastogenic activity, conclusion: no indications of mutagenic properties
[15]
  Kp: ~3
[15]; half-life t½ in brain
  half-life: 2.9 h
[15]; half-life t½ in serum
  half-life: 2.4 h
[16]
  solubility: < 1 µM
